Experimental findings from patent US10767179B2, “MicroRNA composition for the treatment of neuroblastoma” (THE BOARD OF REGENTS OF THE UNIVERSITY OF TEXAS SYSTEM, priority 2014, dated 2020) are described below.

The subject of one series is 3′UTR of CDK4. The series can be described thus: Luciferase Reporter Assay, CDK4 3'UTR. It counts as cell-based, human. To be noted: BE(2)-C cells, 25 nM mimic, 72 h. The source says:
(§1) Luciferase Reporter Assay. The segments of the wildtype 3′ UTRs for CDK4 and STAT3 containing the predicted target sites of miR-506-3p and miR-124-3p were cloned from human genomic DNA. Mutant constructs were generated with the seed target site (GUGCCUU (SEQ ID NO:4)) replaced by CACGGUU (SEQ ID NO:5). The 3′ UTRs were cloned downstream of the firefly luciferase coding sequences into the pmirGLO dual-luciferase reporter (Promega), a vector containing both firefly and Renilla luciferase cDNAs under the control of separate promoter/terminator systems. The firefly luciferase was used as the primary reporter for miRNA regulation of the 3′ UTR. The Renilla luciferase is an internal control for normalization. BE(2)-C cells were co-transfected with luciferase reporters (0.8 ng/μl) and miRNA mimics or control oligonucleotide (oligo) (25 nM). Luciferase activities were measured after 72 h using the Dual-Glo Luciferase Assay System (Promega). Firefly luciferase activity was normalized to Renilla luciferase activity to evaluate the effect of the miRNAs.
(In general: In a reporter assay the amount or activity of a reporter protein is the signal.)

The subject of another series is differentiation markers. The series can be described thus: Western blots of differentiation markers in multiple neuroblastoma cell lines. As to conditions: miRNA mimic. Format: cell-based. How it is done:
(§2) FIG. 3A-3G. Characterization of the effect of the top 5 neurite-inducing miRNA mimics on cell differentiation and growth in multiple neuroblastoma cell lines. (A-B) Effects of the identified top 5 miRNA mimics on neurite outgrowth. BE(2)-C cells were transfected with 25 nM miRNA mimics or control for 4 days, and relative neurite lengths were quantified as above. Shown are representative cell images analyzed to define neurite and cell body areas (A) and neurite length quantifications (B). (C) Effects of the 5 miRNA mimics on expression of differentiation markers. BE(2)-C cells were transfected with 25 nM of the indicated miRNA mimics or control, and proteins levels were examined after 4 days. (D) Effects of the 5 miRNA mimics on cell proliferation rate. (E) Effect of the 5 miRNAs on neurite outgrowth in multiple cell lines. Cells were transfected with 25 nM miRNA mimics or control, and neurite lengths were quantified as above after 5 days. (F-G) Effects of miR-506-3p (F) and miR-124-3p (G) mimics on expression of differentiation markers in multiple cell lines. *, p<0.05; **, p<0.01; ***, p<0.001; **** , p<0.0001.
Western Blots. […] Protein concentration was determined using the Pierce BCA assay (Thermo Fisher Scientific). […] Bound antibodies were detected with secondary antibodies conjugated with horseradish peroxidase (HRP) visualized by enhanced chemiluminescent (ECL) substrate (Pierce).
(In general: Immunoblotting shows a protein as a band on a membrane.)

Another series has as its system STAT3. Put plainly: mRNA expression profiling (Illumina microarray). As to conditions: change of expression induced by miRNA overexpression. Format: cell-based. On the procedure: (§3) Mrna And Mirna Expression. Total RNA was isolated as previously described (Du et al., Mol Cancer Res, 2009, 7(8):1234-43). mRNA expression profiling was done using the Illumina mRNA WG-6 v3 microarray platform. miRNA expression was measured by qRT-PCR using TaqMan microRNA Assays (Life Technologies) with average expression of RNU44 RNA, RNU19 RNA, GAPDH mRNA and 18s rRNA used as controls for normalizing RNA loading.

Another series has as its system RHOQ. Put plainly: mRNA expression profiling (Illumina microarray). It counts as cell-based. To be noted: change of expression induced by miRNA overexpression. On the procedure:
as §3

The subject of the next series is CDK4. The series can be described thus: mRNA expression profiling (Illumina microarray). It counts as cell-based. To be noted: change of expression induced by miRNA overexpression. How it is done: as §3
A further series relates to AHR. The series can be described thus: mRNA expression profiling (Illumina microarray). It counts as cell-based. To be noted: change of expression induced by miRNA overexpression. On the procedure: as §3
For the next series, the system named is CEBPA. The series can be described thus: mRNA expression profiling (Illumina microarray). As to conditions: change of expression induced by miRNA overexpression. Format: cell-based. On the procedure: as §3
The test system of the next series is THRB. The series can be described thus: mRNA expression profiling (Illumina microarray). It counts as cell-based. As to conditions: change of expression induced by miRNA overexpression. On the procedure: as §3
The test system of another series is SHC3. Put plainly: mRNA expression profiling (Illumina microarray). It counts as cell-based. To be noted: change of expression induced by miRNA overexpression. On the procedure:
as §3

A further series concerns PML. The series can be described thus: mRNA expression profiling (Illumina microarray). It counts as cell-based. To be noted: change of expression induced by miRNA overexpression. On the procedure: as §3
Another series concerns RARG. The series can be described thus: mRNA expression profiling (Illumina microarray). Format: cell-based. As to conditions: change of expression induced by miRNA overexpression. How it is done:
as §3

The test system of a further series is BDNF. The series can be described thus: mRNA expression profiling (Illumina microarray). It counts as cell-based. To be noted: change of expression induced by miRNA overexpression. On the procedure:
as §3

The next series has as its system 3′UTR of STAT3. Put plainly: Luciferase Reporter Assay, STAT3 3'UTR. It counts as cell-based, human. To be noted: BE(2)-C cells, 25 nM mimic, 72 h.
Excerpt: as §1

Series [1] concerns additional neuroblastoma cell lines with different genetic backgrounds. The series can be described thus: Neurite outgrowth in multiple neuroblastoma cell lines. It counts as cell-based. As to conditions: 25 nM miRNA mimic, 5 days, among the top 5 miRNAs. How it is done: as §2
Detection and Quantification of Neurite Outgrowth. Cells were plated and treated in 96-well plates. […] The neurite lengths associated with each treatment were calculated using the neurite definition defined for each specific cell line using the NeuroTrack system (Essen BioScience).

For the substance “hsa-miR-506-3p: miRNA mimic (Dharmacon), mature sequence UAAGGCACCCUUCUGAGUAGA (SEQ ID NO: 1) (UAAGGCACCCUUCUGAGUAGA(1); as printed in the source, key not given here)”, in the series on 3′UTR of CDK4, the “Target site in the 3′UTR of CDK4 by luciferase reporter” value is reported as “validated”. For the same substance, the “Expression of differentiation markers in all the tested cell lines” value in the series with differentiation markers is “dramatically induce expression of differentiation markers”. The “Gene expression STAT3” value in the series on STAT3 was found to be 0.75. In addition, in the series on RHOQ, the “Gene expression RHOQ” value is recorded as 1.07. The “Gene expression CDK4” value with CDK4 is listed as 0.39. Also, the “Gene expression AHR” value with AHR worked out at 1.19. For the same substance, the “Gene expression CEBPA” value in the series on CEBPA is given as 0.88. For the same substance, in the series with THRB, the “Gene expression THRB” value amounted to 1.04. Moreover, in the series on SHC3, the “Gene expression SHC3” value is recorded as 1.08. Besides, the “Gene expression PML” value in the series on PML was found to be 1.01. Moreover, the “Gene expression RARG” value with RARG is listed as 1.02. The “Gene expression BDNF” value in the series with BDNF is 1.04. For the same substance, the “Target site in the 3′UTR of STAT3 by luciferase reporter” value in the series on 3′UTR of STAT3 is “validated”. In addition, in series [1], the “Effect on neurite growth in multiple cell lines” value is recorded as “most potent effect on neurite growth”.
